Source: US20260256753A1, “USE OF AN OREXIN 2 RECEPTOR AGONIST FOR IMPROVING RESPIRATORY FUNCTION DURING SLEEP” (TAKEDA PHARMACEUTICAL COMPANY LIMITED, priority 2023, published 2026)

Tests used:
OX2R [1] = biological target: T1, OX2R (Homo sapiens, UniProt O43614); details: OX2R-expressed recombinant cells; cited from earlier work
T1 sequence (O43614 1-444): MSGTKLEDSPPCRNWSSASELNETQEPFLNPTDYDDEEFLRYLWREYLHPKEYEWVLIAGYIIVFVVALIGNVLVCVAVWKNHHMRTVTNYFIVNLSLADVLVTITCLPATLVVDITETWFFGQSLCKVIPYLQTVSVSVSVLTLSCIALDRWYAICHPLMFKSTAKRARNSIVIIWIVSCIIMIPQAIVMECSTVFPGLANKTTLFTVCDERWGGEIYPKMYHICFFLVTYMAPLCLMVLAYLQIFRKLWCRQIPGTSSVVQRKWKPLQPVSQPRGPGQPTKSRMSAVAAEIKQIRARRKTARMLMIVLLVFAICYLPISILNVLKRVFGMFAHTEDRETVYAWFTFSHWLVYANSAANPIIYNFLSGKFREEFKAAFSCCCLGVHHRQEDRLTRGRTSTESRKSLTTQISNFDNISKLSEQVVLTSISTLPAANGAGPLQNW

OX2R [2] = biological target: T1, OX2R; details: OX2R-expressed recombinant cells; cited from earlier work; remark: listed apart in the source
[3] = test system: neurons in the pre-Bötzinger complex; test: Electrophysiologic recording of neurons in the pre-Bötzinger complex in rat medullary slices; format: cell-based; details: whole cell patch clamp, versus vehicle (0.1% DMSO) control, FIG. 1
From the text: (§1) Neonatal rats (postnatal day 1-10) were decapitated and the neuraxis was isolated in a chamber filled with oxygenated artificial cerebrospinal fluid solution (ACSF, in mM: NaCl 125, KCl 2.5, MgCl2 1, CaCl2 2, NaHCO3 25, NaH2PO4 1.25, glucose 25, pH 7.4). The cerebellum was removed, and the brainstem was mounted in the vibratome (VT 1000S; Leica, Milan, Italy) chamber filled with oxygenated gluconate cutting solution (in mM: Kgluconate 130, KCl 15, EGTA 0.2, HEPES 20, glucose 25, kynurenic acid 2, pH 7.4). Transverse medullary slices containing the pre-Bötzinger complex and hypoglossal nucleus were cut (400-600 μm thick). The slices were transferred at room temperature for 1 min in an oxygenated mannitol cutting solution (in mM: D-mannitol 225, glucose 25, KCl 2.5, NaH2PO4 1.25, NaHCO3 26, CaCl2 0.8, MgCl2 8, kynurenic acid 2, pH 7.4). Slices were then transferred in ACSF solution at 30° C. for 30 min and at room temperature for 30 min. At least 30 min prior to the start of recording, each slice was transferred in the recording solution in which the concentration of K+ was raised to 9 mM and that of Mg2+ was decreased to 0.5 mM to ensure the production of long-term and stable rhythm. […] Signals were acquired using Clampex 10.6 software (Axon, Molecular Devices, CA, USA) at a sampling rate of 10-20 kHz and filtered at 2-10 kHz using an 8-pole Bessel filter built within the software and analyzed using Clampfit 10.6 software (pClamp 10.6; Axon, Molecular Devices). […] Bursts were then automatically detected, and burst frequency was measured.
(§2) To evaluate the effects of vehicle (0.1% DMSO) on neuronal activities, after 5 min of stabilization, the neuronal activities under basal condition was recorded for 2-12 min, followed by recording in the presence of vehicle (0.1% DMSO) for 30 min. […]

phrenic motoneurons = test: Electrophysiologic recording of phrenic motoneurons in rat isolated brainstem-spinal cord preparations; format: cell-based; details: C3-5 ventral root, versus vehicle control, FIG. 2
Procedure: Neonatal (postnatal day 1-4) rats were decapitated, and the brainstem-spinal cord was dissected in a bath containing ACSF. The cerebellum and pons were ablated. At least 30 min prior to the start of recording, the tissue was transferred in the recording solution in which the concentration of K+ was raised to 5 mM and that of Mg2+ was decreased to 0.5 mM to ensure production of long-term and stable rhythm (modified ACSF, in mM: NaCl 125, MgCl2 0.5, KCl 5, CaCl2 1, NaHCO3 25, NaH2PO4 1.25, glucose 30, pH 7.4). The tissues were glued on coverslips and transferred to a recording chamber and continuously perfused at 27±2° C. with mACSF at a flow rate of 2.3±0.2 mL/min. Activity of phrenic motoneurons was measured in electrophysiological recordings from C3-5 ventral root, outputs of phrenic motoneurons (J. J. Greer, J. C. Smith, J. L. Feldman, Respiratory and locomotor patterns generated in the fetal rat brain stem-spinal cord in vitro, J Neurophysiol 67 (4) (1992) 996-9; J. C. Smith, J. J. Greer, G. S. Liu, J. L. Feldman, Neural mechanisms generating respiratory pattern in mammalian brain stem-spinal cord in vitro. I. Spatiotemporal patterns of motor and medullary neuron activity, J Neurophysiol 64 (4) (1990) 1149-69), using a glass suction electrode. […] The rectification and integration was used for quantification of the activities of phrenic motoneurons because the spontaneous bursts detected in voltage signals are consisting of multiple positive and negative voltages from baseline (T. Sugita, et al.). […] Bursts were then automatically detected, and burst frequency was measured.
To evaluate the effects of vehicle (0.1% DMSO) on neuronal activities, after 5 min of stabilization, the neuronal activities under basal condition were recorded for 2-20 min, followed by recording with vehicle (0.1% DMSO) for 30-40 min. […] As vehicle (0.1% DMSO) had no significant effects on burst frequency of phrenic neurons, potential of drugs was assessed under vehicle (0.1% DMSO). […]

hypoglossal motoneurons = test: Electrophysiologic recording of hypoglossal motoneurons in rat medullary slices; format: cell-based; details: whole cell patch clamp, versus vehicle control, FIG. 3
From the text: as §1, §2

COc1ccc(-c2cccc(C(=O)N(C)C)c2)cc1S(=O)(=O)Nc1cccc(NCCNC(=O)c2ccccc2N(C)C)c1 [YNT-185]
calcium mobilization (OX2R [1]): increase calcium mobilization | recruitment of β-arrestins (OX2R [2]): promote recruitment of β-arrestins

CC(C)(O)C(=O)N1CC[C@H](NS(C)(=O)=O)[C@@H]1Cc1cccc(-c2cc(F)cc(F)c2)c1F [Compound B, N-((2S,3S)-1-(2-hydroxy-2-methylpropanoyl)-2-((2,3′,5′-trifluorobiphenyl-3-yl)methyl)pyrrolidin-3-yl) methanesulfonamide]
burst frequency in neurons in the pre-Bötzinger complex [3]: increased burst frequency | burst frequency of phrenic motoneurons (phrenic motoneurons): increased burst frequency | burst frequency of hypoglossal motoneurons (hypoglossal motoneurons): increased burst frequency

Orexin-B: Orexin-B (OX-B) peptide
calcium mobilization (OX2R [1]): increase calcium mobilization | recruitment of β-arrestins (OX2R [2]): promote recruitment of β-arrestins
